Like-named read-outs stand apart in the source and are kept apart here.
What was measured:
VanX = VanX (Enterococcus faecium, UniProt Q06241); assay: CrystaLEAD crystallographic screening of VanX crystals; conditions: crystals soaked in mixtures of 7-10 compounds
human urokinase (μUK) = target: T1, human urokinase (μUK) (Homo sapiens, UniProt P00749, C299A/N322Q); assay: Urokinase inhibition constants by S-2444 chromogenic activity; assay type: biochemical
T1 construct: μUK (UK amino acids Ile^159-Lys^404 that contain Ala^279Gln^302); made in house; host or cells: baculovirus-infected High-Five insect cells or Pichia pastoris GS115 (secreted)
Experimental: Assays were completed at both pH 6.5 (0.1 M NaPO4) and 7.4 (50 mM Tris).

μUK = μUK (Homo sapiens, UniProt P00749, C299A/N322Q); conditions: for binding at the urokinase active site seen in Fo-Fc electron density map: crystal soaked in mixture of 6 to 7 compounds, 3.3 to 5.2 mM each, compound 31 soaked individually
[1] = Oral bioavailability in the rat; conditions: in vivo, 10 mg/kg dose
ErmC′ = target: T2, ErmC′ (Bacillus subtilis, UniProt P13956); assay: CrystaLEAD crystallographic screening of ErmC′ crystals; assay type: binding; conditions: adenosine library, mixtures of 8-9 compounds
T2 construct: made in house; host or cells: E. coli BL21(DE3)/pLysS with pTERM31 (pET24+ derivative)
T2 sequence (P13956 whole entry): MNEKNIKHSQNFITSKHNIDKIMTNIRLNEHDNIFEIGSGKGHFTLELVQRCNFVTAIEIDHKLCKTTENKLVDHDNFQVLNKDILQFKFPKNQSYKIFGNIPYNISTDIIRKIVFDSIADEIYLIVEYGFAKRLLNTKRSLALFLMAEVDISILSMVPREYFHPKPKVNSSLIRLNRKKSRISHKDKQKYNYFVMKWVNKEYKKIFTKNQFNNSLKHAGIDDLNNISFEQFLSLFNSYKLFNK
Excerpt: The adenosine library consisted of 59 compounds. The library was divided into 7 mixtures of 8-9 shape-diverse compounds and screened by the CrystaLEAD™ method. […] Equal volumes of each compound were mixed to assemble the mixture of […].
Typical usable data were 80-90% complete at 3.4-3.6 Å resolution with merging R-factors of 7-16%.

[2] = pH 6.5 (0.1 M NaPO4), S-2444 substrate, read-out: Ki (pH 6.5)
[3] = pH 7.4 (50 mM Tris), S-2444 substrate, read-out: Ki (pH 7.4)

VanX, sequence (Q06241 whole entry): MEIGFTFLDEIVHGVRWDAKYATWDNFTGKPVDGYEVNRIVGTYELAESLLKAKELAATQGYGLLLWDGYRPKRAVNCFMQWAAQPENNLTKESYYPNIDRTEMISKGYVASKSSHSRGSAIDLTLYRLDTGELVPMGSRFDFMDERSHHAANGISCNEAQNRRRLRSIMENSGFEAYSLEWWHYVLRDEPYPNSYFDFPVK

O=C(O)C1CCCC1 [Compound 36]
binding at the VanX active site seen in electron density map (VanX): bound

Cc1ccc(N)nc1 [Compound 31]
Ki (human urokinase (μUK); Ki (pH 6.5)): > 500 µM | Ki (human urokinase (μUK); Ki (pH 7.4)): > 500 µM | pKa (pKa of CrystaLEAD hits): 7 | binding at the urokinase active site seen in Fo-Fc electron density map (μUK): found to bind

Nc1ccc2cccc(O)c2n1 [Compound 19, 2-amino-8-hydroxyquinoline]
Ki (human urokinase (μUK); Ki (pH 7.4), pH 7.4 (50 mM Tris), S-2444 substrate): 137 µM | Ki (human urokinase (μUK); Ki at pH 6.5, pH 6.5, restated in Example 3): 56 µM | pKa (pKa of CrystaLEAD hits): 7.3 | binding at the urokinase active site seen in Fo-Fc electron density map (μUK): bound | binding at the urokinase active site seen in electron density map, 100 compound mixture (μUK; mixture of 100 compounds spiked with compound 19 at 180 μM, 1% DMSO, 4 hours 15 minutes soak): positive hit

Nc1ccc2cccc(Nc3ncccn3)c2n1 [Compound 35, 8-aminopyrimidinyl-2-aminoquinoline]
bioavailability [1]: 30 to 40%

O=C(O)C(=O)CS [Compound 39]
binding at the VanX active site seen in electron density map (VanX): bound

Cc1nc(N)ccc1Br [Compound 5]
Ki (human urokinase (μUK); [2]): > 500 µM | Ki (human urokinase (μUK); [3]): > 500 µM | pKa (pKa of CrystaLEAD hits): 6 | binding at the urokinase active site seen in Fo-Fc electron density map (μUK): binder

O=C(O)CCC1CCCC1 [Compound 37]
binding at the VanX active site seen in electron density map (VanX): found to bind

OCC1OC(n2cnc3c(NCc4ccccc4)ncnc32)C(O)C1O (stereo not drawn) [Compound 44]
binding to ErmC′ seen in electron density map (ErmC′): hits

N[C@@H](CS)C(=O)O [Compound 41]
binding at the VanX active site seen in electron density map (VanX): binding

OCC1OC(n2cnc3c(NC4CCCCC4)ncnc32)C(O)C1O (stereo not drawn) [Compound 45]
binding to ErmC′ seen in electron density map (ErmC′): hits

Nc1ccc2c(c1)CC=N2 [Compound 22, 5-aminoindole]
Ki (human urokinase (μUK); [2]): 200 µM | Ki (human urokinase (μUK); [3]): > 500 µM | pKa (pKa of CrystaLEAD hits): 6 | binding at the urokinase active site seen in Fo-Fc electron density map (μUK): found to bind

Source: patent US20040219607A1, “Ligand screening and design by X-ray crystallography” (priority 1998, published 2004)
